We go through 13 compounds from PubChem BioAssay (NCI).

Among the test systems are A549 NSCLC; CCRF-CEM leukemia; MCF7 breast; OVCAR-4 ovarian; SF-295 CNS; SN12C renal; U251 CNS; UO-31 renal; SK-OV-3 ovarian.
Common to all, as to experiment: NCI tumour cell line growth inhibition, 48 h

The structures appear in SMILES notation.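 Tested at 5 concentrations; 48 h exposure; 96-well plates; endpoints linearly interpolated, else capped at highest concentration. GI50 marks 50% less growth. TGI marks complete inhibition of growth.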

For `COc1ccc2oc(=O)cc(C(c3ccc[nH]3)c3ccc[nH]3)c2c1`, the GI50 in the experiment on A549 NSCLC was 0.118 µM; in the experiment with CCRF-CEM leukemia, 0.105 µM; in the experiment with MCF7 breast it was 0.108 µM; in the experiment with OVCAR-4 ovarian, 0.303 µM; with SF-295 CNS it was 0.092 µM; with SN12C renal, 0.148 µM. In addition, the GI50 was 0.11 µM with U251 CNS and 0.127 µM in the experiment with UO-31 renal. Also, the TGI in the experiment with A549 NSCLC came out at 10.8 µM; in the experiment on CCRF-CEM leukemia, 29.9 µM; in the experiment on MCF7 breast it was 14.5 µM; in the experiment with OVCAR-4 ovarian, 26.3 µM; in the experiment with SF-295 CNS, 0.214 µM; in the experiment with SN12C renal, 15.8 µM. The results for the TGI in the experiment with U251 CNS and with UO-31 renal were 12.9 µM and 11.9 µM, respectively.

As for `COc1cc(C2c3[nH]c4ccccc4c3C[C@H]3COC(=O)N23)cc(OC)c1OC` (stereo partly specified), the GI50 is 0.0233 µM in the experiment with A549 NSCLC; less than 0.01 µM in the experiment with MCF7 breast; 0.507 µM with OVCAR-4 ovarian; 0.0471 µM in the experiment with SN12C renal; less than 0.01 µM in the experiment with U251 CNS; less than 0.01 µM with UO-31 renal. Further, the TGI in the experiment on A549 NSCLC was more than 100 µM; in the experiment with CCRF-CEM leukemia, 0.0789 µM; with OVCAR-4 ovarian, more than 100 µM; in the experiment on SN12C renal, more than 100 µM; in the experiment on U251 CNS, more than 100 µM; with UO-31 renal, 50.1 µM.

On to `CC1CC(C2=CC=CCS2)=Nc2ccccc2S1` (stereo unspecified), for which the TGI with A549 NSCLC, with CCRF-CEM leukemia, in the experiment with OVCAR-4 ovarian, in the experiment with SF-295 CNS, in the experiment with SK-OV-3 ovarian and in the experiment with SN12C renal was more than 100 µM in each case. In addition, the TGI with U251 CNS and in the experiment on UO-31 renal was more than 100 µM throughout.

As to `C/C(CN1C(=O)c2ccccc2C1=O)=N\NS(=O)(=O)c1ccc(C)cc1`, the TGI with A549 NSCLC, in the experiment on CCRF-CEM leukemia, in the experiment on OVCAR-4 ovarian, with SF-295 CNS, with SK-OV-3 ovarian and in the experiment on SN12C renal was more than 100 µM in each case. Also, the TGI with U251 CNS and with UO-31 renal was more than 100 µM throughout.

Turning to `O=[N+]([O-])c1ccc(S(=O)(=O)Cc2ccccc2)c([N+](=O)[O-])c1`, the TGI in the experiment on A549 NSCLC is 33.3 µM; with CCRF-CEM leukemia, 0.498 µM; with MCF7 breast it was 3.65 µM; in the experiment with OVCAR-4 ovarian it was 5.77 µM; in the experiment on SF-295 CNS, 33.6 µM; in the experiment on SK-OV-3 ovarian, 13.2 µM. For the same compound, the TGI stood at 4.91 µM with U251 CNS and 2.95 µM in the experiment on UO-31 renal.

For `O=C1c2ccccc2-c2c1c1ccccc1c(=O)n2CCCCNCCCn1c2c(c3ccccc3c1=O)C(=O)c1ccccc1-2`, the GI50 in the experiment on A549 NSCLC is 0.508 µM; in the experiment on MCF7 breast it was 0.345 µM; in the experiment with OVCAR-4 ovarian, 0.683 µM; with SF-295 CNS, 0.27 µM; in the experiment on SK-OV-3 ovarian it was 5.35 µM; with SN12C renal, 0.158 µM. Moreover, in the experiment with UO-31 renal, the GI50 is 0.0557 µM. Besides, the TGI turned out to be 2.9 µM in the experiment on A549 NSCLC; 6.25 µM with MCF7 breast; 15.5 µM with OVCAR-4 ovarian; 2.33 µM in the experiment on SF-295 CNS; 50 µM in the experiment with SK-OV-3 ovarian; 1.13 µM with SN12C renal. In the experiment on UO-31 renal, this compound yielded a TGI of 7.23 µM.

As for `COc1ccccc1NC(=O)c1sc2nc3c(cc2c1N)C(=O)CCC3`, the GI50 is 2.11 µM in the experiment with A549 NSCLC; more than 100 µM with CCRF-CEM leukemia; 4.8 µM with MCF7 breast; 1.75 µM in the experiment on SF-295 CNS; 3.59 µM in the experiment with SK-OV-3 ovarian; more than 100 µM in the experiment with SN12C renal. In addition, in the experiment on U251 CNS, the GI50 is 4.64 µM. Further, the TGI with A549 NSCLC, with CCRF-CEM leukemia, in the experiment on MCF7 breast, with SF-295 CNS, in the experiment on SK-OV-3 ovarian and in the experiment on SN12C renal was more than 100 µM in each case. The compound further gave a TGI in the experiment on U251 CNS of more than 100 µM.

As for `COc1ccc(C2CC(c3cc(OC)c(OC)c(OC)c3)=NO2)cc1OCCCCOc1cc2c(cc1OC)C(=O)N1CCC[C@H]1C=N2` (stereo partly specified), the GI50 with A549 NSCLC was 2.33 µM; with CCRF-CEM leukemia, 1.41 µM; in the experiment on MCF7 breast, 1.75 µM; in the experiment on OVCAR-4 ovarian, 2.07 µM; in the experiment on SK-OV-3 ovarian, 3.37 µM; with SN12C renal, 1.58 µM. Besides, the GI50 in the experiment on U251 CNS is 1.73 µM; with UO-31 renal it was 2.09 µM. The TGI in the experiment on A549 NSCLC was 5.68 µM; with CCRF-CEM leukemia, 4.27 µM; in the experiment with MCF7 breast it was 12.3 µM; with OVCAR-4 ovarian, 5.04 µM; in the experiment on SK-OV-3 ovarian it was 9.46 µM; in the experiment with SN12C renal, 3.31 µM. Further, the TGI in the experiment on U251 CNS was determined as 3.61 µM; with UO-31 renal, 6.26 µM.

On to `NC1=NC(=O)/C(=C/c2ccccc2[N+](=O)[O-])C(N)=N1`, for which the TGI in the experiment with A549 NSCLC, in the experiment on CCRF-CEM leukemia, with OVCAR-4 ovarian, in the experiment on SF-295 CNS, with SK-OV-3 ovarian and in the experiment on SN12C renal was more than 100 µM each time. Besides, the TGI in the experiment with U251 CNS and with UO-31 renal was more than 100 µM throughout.

For `N#Cc1ccccc1NC(=O)/C(=N\N)C(C(=O)c1ccncc1)C1OC(=O)c2ccccc21` (stereo unspecified), the TGI with A549 NSCLC, in the experiment with CCRF-CEM leukemia, with OVCAR-4 ovarian, with SF-295 CNS, with SK-OV-3 ovarian and with SN12C renal was more than 100 µM throughout. For the same compound, the TGI in the experiment with U251 CNS and with UO-31 renal was more than 100 µM each time.

For the compound `COc1ccccc1/C=C(\C#N)c1ccccc1`, the TGI in the experiment with A549 NSCLC is more than 100 µM; in the experiment on CCRF-CEM leukemia it was 55.2 µM; in the experiment with OVCAR-4 ovarian, more than 100 µM; with SF-295 CNS it was more than 100 µM; in the experiment with SK-OV-3 ovarian, 84.3 µM; with SN12C renal, more than 100 µM. In addition, the TGI in the experiment with U251 CNS is more than 100 µM; in the experiment with UO-31 renal it was 97.5 µM.

In the case of `O=C(O)C/C(=C\c1ccco1)C(=O)O`, the TGI in the experiment with A549 NSCLC, in the experiment with MCF7 breast, in the experiment on OVCAR-4 ovarian, in the experiment with SF-295 CNS, in the experiment with SK-OV-3 ovarian and in the experiment with SN12C renal was more than 100 µM each time. Moreover, the TGI with U251 CNS and with UO-31 renal was more than 100 µM each time.

As to `CN1N=CSC12C(=O)N(c1ccc(Cl)cc1)C(=O)N2c1ccc(Cl)cc1` (stereo unspecified), the TGI in the experiment with A549 NSCLC is more than 100 µM; with CCRF-CEM leukemia, more than 100 µM; with OVCAR-4 ovarian it was more than 100 µM; in the experiment on SF-295 CNS, 9.16 µM; in the experiment with SK-OV-3 ovarian, 32 µM; in the experiment with SN12C renal, more than 100 µM. Moreover, the TGI was determined as 53.6 µM with U251 CNS and 8.08 µM in the experiment on UO-31 renal.
